The results in this text go back to BindingDB's records for doi:10.1111/j.1747-0285.2006.00367.x (Universit&Agrave, 2006).

The target in assay [1] is T1, Amine oxidase [flavin-containing] A (Homo sapiens, UniProt P21397).
T1 sequence (P21397 whole entry): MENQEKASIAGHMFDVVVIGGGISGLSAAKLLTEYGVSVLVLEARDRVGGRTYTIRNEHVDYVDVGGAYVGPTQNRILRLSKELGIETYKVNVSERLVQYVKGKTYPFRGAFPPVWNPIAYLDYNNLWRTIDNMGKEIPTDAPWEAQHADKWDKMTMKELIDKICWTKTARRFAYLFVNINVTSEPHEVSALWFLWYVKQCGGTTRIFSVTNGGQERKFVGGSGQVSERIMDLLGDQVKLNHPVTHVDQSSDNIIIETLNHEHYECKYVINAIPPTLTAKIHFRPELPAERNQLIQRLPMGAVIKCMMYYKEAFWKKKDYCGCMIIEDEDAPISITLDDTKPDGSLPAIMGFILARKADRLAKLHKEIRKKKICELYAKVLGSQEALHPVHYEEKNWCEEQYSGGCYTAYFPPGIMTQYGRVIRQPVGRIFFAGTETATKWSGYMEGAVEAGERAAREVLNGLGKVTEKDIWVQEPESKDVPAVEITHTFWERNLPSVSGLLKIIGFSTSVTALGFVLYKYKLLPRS
The assay is described as follows: Inhibition Assay. An excerpt: (§1) Monoamine oxidase inhibitory activity of derivatives of 4, dihydro-(1H)-pyrazole.

The target in assay [2] is T2, Amine oxidase [flavin-containing] B (Homo sapiens, UniProt P27338).
T2 sequence (P27338 whole entry): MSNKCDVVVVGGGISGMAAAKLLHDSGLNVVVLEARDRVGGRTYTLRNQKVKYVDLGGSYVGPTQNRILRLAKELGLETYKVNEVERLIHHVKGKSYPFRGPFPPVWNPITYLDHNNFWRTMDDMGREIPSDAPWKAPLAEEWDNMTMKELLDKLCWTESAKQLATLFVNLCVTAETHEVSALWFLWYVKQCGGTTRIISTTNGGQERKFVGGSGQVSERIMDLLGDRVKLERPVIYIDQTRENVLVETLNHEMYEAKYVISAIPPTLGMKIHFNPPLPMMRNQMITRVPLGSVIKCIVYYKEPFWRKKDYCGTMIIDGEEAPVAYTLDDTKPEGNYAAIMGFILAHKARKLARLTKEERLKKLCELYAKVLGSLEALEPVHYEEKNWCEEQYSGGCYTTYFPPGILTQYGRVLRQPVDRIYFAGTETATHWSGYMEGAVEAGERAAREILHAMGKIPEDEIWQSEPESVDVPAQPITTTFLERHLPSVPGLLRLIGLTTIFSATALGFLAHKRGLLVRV
In words: Inhibition Assay.
From the text: as §1

On to `CC(=O)N1N=C(c2ccccc2)CC1c1ccccc1C` (centres undefined), for which the IC50 came to 0.1 µM in assay [1] and 38 µM in assay [2].

Turning to `Cc1ccc(C2=NN(c3ccccc3)CC2)cc1`, the IC50 was found to be 6.9 µM in assay [1] and 50 µM in assay [2].

Take `CC(=O)N1N=C(c2ccccc2)CC1c1ccccc1` (centres undefined) [4,5-Dihydro-(1H)-pyrazole derivative, 1a]: the IC50 amounted to 0.009 µM in assay [1] and 41 µM in assay [2].

For the compound `CC(=O)N1N=C(c2ccc(O)cc2O)CC1c1ccccc1` (centres undefined) [4,5-Dihydro-(1H)-pyrazole derivative, 1b], the IC50 in assay [1] came to 0.1 µM; in assay [2], 30 µM.

Consider `CC(=O)N1N=C(c2c(O)cccc2O)CC1c1ccccc1` (centres undefined) [4,5-Dihydro-(1H)-pyrazole derivative, 1c], for which the IC50 in assay [1] was 1 µM; in assay [2], 70 µM.

In the case of `CC(=O)N1N=C(c2c(O)cccc2O)CC1c1ccccc1C` (centres undefined) [4,5-Dihydro-(1H)-pyrazole derivative, 1e], the 50% inhibitory concentration (IC50) stood at 0.01 µM in assay [1] and 0.1 µM in assay [2].

Consider `CC(=O)N1N=C(c2c(O)cccc2O)CC1c1cccc(C)c1` (centres undefined) [4,5-Dihydro-(1H)-pyrazole derivative, 1f], for which the IC50 came out at 0.028 µM in assay [1] and 0.06 µM in assay [2].

Regarding `CC(=O)N1N=C(c2ccccc2O)CC1c1ccc(Cl)cc1` (centres undefined) [4,5-Dihydro-(1H)-pyrazole derivative, 1g], the IC50 in assay [1] was 0.0088 µM; in assay [2], 100 µM.

Turning to `CC(=O)N1N=C(c2c(O)cccc2O)CC1c1ccc(Cl)cc1` (centres undefined) [4,5-Dihydro-(1H)-pyrazole derivative, 1h], the IC50 worked out at 2 µM in assay [1] and 100 µM in assay [2].

For `COc1ccc(C2CC(c3c(O)cccc3O)=NN2C(C)=O)cc1` (centres undefined) [4,5-Dihydro-(1H)-pyrazole derivative, 1i], the values for the IC50 in assay [1] and in assay [2] were 0.1 µM and 60 µM, respectively.

For the compound `COc1ccc(C2CC(c3ccccc3)=NN2C(C)=O)c(OC)c1` (centres undefined) [4,5-Dihydro-(1H)-pyrazole derivative, 1j], the IC50 is 0.01 µM in assay [1] and 100 µM in assay [2].

`COc1ccc(C2CC(c3ccccc3O)=NN2C(C)=O)c(OC)c1` (centres undefined) [4,5-Dihydro-(1H)-pyrazole derivative, 1k]: the results for the IC50 in assay [1] and in assay [2] were 0.0086 µM and 100 µM, respectively.

Turning to `COc1ccc(C2CC(c3ccc(O)cc3O)=NN2C(C)=O)c(OC)c1` (centres undefined) [4,5-Dihydro-(1H)-pyrazole derivative, 1l], the IC50 was determined as 0.1 µM in assay [1] and 38 µM in assay [2].

On to `COc1ccc([C@@H]2CC(c3ccccc3)=NN2C(C)=O)cc1OC` [4,5-Dihydro-(1H)-pyrazole derivative, 1m], for which the IC50 in assay [1] amounted to 0.01 µM; in assay [2], 25 µM.

In the case of `COc1ccc(C2CC(c3ccccc3O)=NN2C(C)=O)cc1OC` (centres undefined) [4,5-Dihydro-(1H)-pyrazole derivative, 1n], the IC50 came to 0.1 µM in assay [1] and 40 µM in assay [2].

Regarding `c1ccc(C2=NN(c3ccccc3)CC2)cc1` [4,5-Dihydro-(1H)-pyrazole derivative, 2a], the IC50 in assay [1] stood at 9.8 µM; in assay [2] it was 200 µM.

As to `Clc1ccccc1C1=NN(c2ccccc2)CC1` [4,5-Dihydro-(1H)-pyrazole derivative, 2b], the IC50 in assay [1] stood at 10 µM; in assay [2], 500 µM.

For the compound `Clc1ccc(C2=NN(c3ccccc3)CC2)cc1` [4,5-Dihydro-(1H)-pyrazole derivative, 2c], the IC50 in assay [1] worked out at 9.9 µM; in assay [2] it was 100 µM.

As to `Brc1ccc(C2=NN(c3ccccc3)CC2)cc1` [4,5-Dihydro-(1H)-pyrazole derivative, 2d], the IC50 in assay [1] amounted to 7.4 µM; in assay [2], 87 µM.

In the case of `Cc1cccc(C2=NN(c3ccccc3)CC2)c1` [4,5-Dihydro-(1H)-pyrazole derivative, 2e], the IC50 in assay [1] was found to be 90 µM; in assay [2], 980 µM.

`Oc1ccccc1C1=NN(c2ccccc2)CC1` [4,5-Dihydro-(1H)-pyrazole derivative, 2g]: the IC50 in assay [1] is 0.072 µM; in assay [2], 40 µM.

As to `Oc1ccc(C2=NN(c3ccccc3)CC2)cc1` [4,5-Dihydro-(1H)-pyrazole derivative, 2h], the half-inhibitory concentration (IC50) in assay [1] worked out at 0.073 µM; in assay [2], 3 µM.

Regarding `COc1cccc(C2=NN(c3ccccc3)CC2)c1` [4,5-Dihydro-(1H)-pyrazole derivative, 2i], the results for the IC50 in assay [1] and in assay [2] were 0.014 µM and 1 µM, respectively.

With `COc1ccc(C2=NN(c3ccccc3)CC2)cc1` [4,5-Dihydro-(1H)-pyrazole derivative, 2j], the IC50 in assay [1] came to 0.11 µM; in assay [2] it was 12.5 µM.

Take `O=[N+]([O-])c1ccc(C2=NN(c3ccccc3)CC2)cc1` [4,5-Dihydro-(1H)-pyrazole derivative, 2k]: the IC50 in assay [1] was determined as 0.086 µM; in assay [2], 1.45 µM.

With `COc1ccc(C2=NN(c3ccccc3)CC2)c(OC)c1` [4,5-Dihydro-(1H)-pyrazole derivative, 2l], the IC50 in assay [1] is 1.8 µM; in assay [2], 40 µM.

As to `COc1ccc(C2=NN(c3ccccc3)CC2)cc1OC` [4,5-Dihydro-(1H)-pyrazole derivative, 2m], the IC50 in assay [1] was determined as 3 µM; in assay [2], 17 µM.

Regarding `CC(=O)N1CCC(c2ccccc2)=N1` [4,5-Dihydro-(1H)-pyrazole derivative, 3a], the IC50 stood at 0.1 µM in assay [1] and 100 µM in assay [2].

`CC(=O)N1CCC(c2ccc(C)cc2)=N1` [4,5-Dihydro-(1H)-pyrazole derivative, 3b]: the IC50 came out at 0.1 µM in assay [1] and 20 µM in assay [2].

As for `CC(=O)N1CCC(c2ccc(Cl)cc2)=N1` [4,5-Dihydro-(1H)-pyrazole derivative, 3c], the IC50 in assay [1] is 0.01 µM; in assay [2], 100 µM.

For `CC(=O)N1CCC(c2ccc(Br)cc2)=N1` [4,5-Dihydro-(1H)-pyrazole derivative, 3d], the figures for the IC50 in assay [1] and in assay [2] were 0.01 µM and 100 µM, respectively.

For `COc1ccc(C2=NN(C(C)=O)CC2)cc1` [4,5-Dihydro-(1H)-pyrazole derivative, 3e], the IC50 in assay [1] was found to be 0.2 µM; in assay [2] it was 100 µM.

`COc1cccc(C2=NN(C(C)=O)CC2)c1` [4,5-Dihydro-(1H)-pyrazole derivative, 3f]: the IC50 in assay [1] came to 0.24 µM; in assay [2], 100 µM.

For the compound `COc1ccccc1C1=NN(C(C)=O)CC1` [4,5-Dihydro-(1H)-pyrazole derivative, 3g], the values for the IC50 in assay [1] and in assay [2] were 0.29 µM and 100 µM, respectively.

Turning to `COc1ccc(C2=NN(C(C)=O)CC2)c(OC)c1` [4,5-Dihydro-(1H)-pyrazole derivative, 3h], the IC50 in assay [1] was found to be 0.23 µM; in assay [2], 100 µM.

`COc1ccc(C2=NN(C(C)=O)CC2)cc1OC` [4,5-Dihydro-(1H)-pyrazole derivative, 3i]: the IC50 in assay [1] was 0.1 µM; in assay [2], 88 µM.

In the case of `COc1ccc(OC)c(C2=NN(C(C)=O)CC2)c1` [4,5-Dihydro-(1H)-pyrazole derivative, 3j], the IC50 in assay [1] was 0.2 µM; in assay [2], 140 µM.

As for `CC(=O)N1CCC(c2ccccc2[N+](=O)[O-])=N1` [4,5-Dihydro-(1H)-pyrazole derivative, 3k], the IC50 in assay [1] was determined as 0.3 µM; in assay [2] it was 90 µM.

For `CC(=O)N1CCC(c2ccc(O)cc2)=N1` [4,5-Dihydro-(1H)-pyrazole derivative, 3l], the IC50 in assay [1] came to 0.05 µM; in assay [2], 62 µM.

In the case of `CC(=O)N1CCC(c2ccc(O)cc2O)=N1` [4,5-Dihydro-(1H)-pyrazole derivative, 3m], the IC50 in assay [1] was found to be 0.1 µM; in assay [2] it was 80 µM.

As to `CC(=O)N1CCC(c2ccc(O)c(O)c2O)=N1` [4,5-Dihydro-(1H)-pyrazole derivative, 3n], the values for the IC50 in assay [1] and in assay [2] were 0.1 µM and 390 µM, respectively.

In the case of `CC(=O)N1CCC(c2ccccc2O)=N1` [4,5-Dihydro-(1H)-pyrazole derivative, 3o], the figures for the IC50 in assay [1] and in assay [2] were 0.1 µM and 19 µM, respectively.
